From ChEMBL document CHEMBL1143176, “Design, synthesis, and biological activity of piperidine diamine derivatives as factor Xa inhibitor” (Bioorg Med Chem Lett, 2008) come the findings set out here.

A short description of data set [1]: Metabolic stability assessed as half life in human liver microsome. Format: ADME. The note with it: liver microsomes.
Data set [2] can be described thus: Metabolic stability assessed as intrinsic clearance in human liver microsome. The class given is ADME. Particulars: liver microsomes.
Data set [3] is described as follows: Solubility in japanese pharmacopoeia second fluid at pH 6.8. The class given is physicochemical.
The target in data set [4] is Coagulation factor X (Homo sapiens, UniProt P00742). Kind of data set: Inhibition of human factor 10a.
Data set [5] relates to Plasma. Kind of data set: Anticoagulant activity in human plasma assessed as concentration required to double prothrombin time. Format: functional.
The test system of data set [6] is Rattus norvegicus. Kind of data set: Ex vivo inhibition of factor 10a in Wistar rat plasma at 10 mg/kg, po after 1 hr. Format: functional.
Data set [7] concerns Rattus norvegicus. Put plainly: Ex vivo inhibition of factor 10a in Wistar rat plasma at 10 mg/kg, po after 4 hrs. The class given is functional.
Data set [8] concerns Rattus norvegicus. Kind of data set: Ex vivo inhibition of factor 10a in Wistar rat plasma at 10 mg/kg, po after 0.5 hrs. The class given is functional.
Data set [9] concerns Rattus norvegicus. Put plainly: Ex vivo inhibition of factor 10a in Wistar rat plasma at 10 mg/kg, po after 2 hrs. Format: functional.
Data set [10] can be described thus: AUC (0 to 24 hrs) in monkey at 1.0 mg/kg, po. Format: ADME, organism-based, Macaca mulatta. On the set-up: time < 24 hr, dose 1 mg/kg, route oral. Particulars: rhesus monkey, plasma.
Data set [11] is described as follows: Cmax in monkey at 1.0 mg/kg, po. The class given is ADME, organism-based, Macaca mulatta. On the set-up: dose 1 mg/kg, route oral. The note with it: rhesus monkey, in vivo.
Data set [12] in a line: Tmax in monkey at 1.0 mg/kg, po. On the set-up: dose 1 mg/kg, route oral. The note with it: rhesus monkey, in vivo. Format: ADME, organism-based, Macaca mulatta.

Values after ≈ are worked out from the molar mass of the structure shown. A value given as a limit tells only on which side of the number the result lay.

Coagulation factor X, sequence (P00742 41-179 limits assumed): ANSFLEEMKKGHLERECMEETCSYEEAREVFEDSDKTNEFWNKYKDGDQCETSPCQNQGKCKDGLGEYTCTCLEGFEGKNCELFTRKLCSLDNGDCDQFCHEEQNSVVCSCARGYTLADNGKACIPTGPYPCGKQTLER
Coagulation factor X, sequence (P00742 235-488 limits assumed): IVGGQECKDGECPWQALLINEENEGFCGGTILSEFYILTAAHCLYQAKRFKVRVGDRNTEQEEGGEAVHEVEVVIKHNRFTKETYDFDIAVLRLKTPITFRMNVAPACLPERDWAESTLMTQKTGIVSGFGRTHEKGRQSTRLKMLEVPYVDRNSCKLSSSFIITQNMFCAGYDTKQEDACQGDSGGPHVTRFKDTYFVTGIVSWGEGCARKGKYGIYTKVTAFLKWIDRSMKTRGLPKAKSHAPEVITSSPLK

As to `CN1CCc2nc(C(=O)N[C@@H]3CCCC[C@@H]3NC(=O)c3cc4cc(Cl)ccc4[nH]3)sc2C1`, in data set [1], the half-life was determined as 6.42 min. Moreover, in data set [2], the CLint scaled is 97.2 mL/min/kg. Moreover, the solubility in [3] is 16 µg/mL (≈ 33.9 µM).
In [4], `CC(C)C(=O)N1CC[C@H](NC(=O)c2cc3cc(Cl)ccc3[nH]2)[C@H](NC(=O)c2nc3c(s2)CN(C)CC3)C1` had an IC50 of 5.6 nM. Further, the Activity in data set [5] came to 1.1 µM. Also, the solubility in data set [3] amounted to 66 µg/mL (≈ 122 µM).
With `CN1CCc2nc(C(=O)N[C@@H]3CN(C(=O)CO)CC[C@@H]3NC(=O)c3cc4cc(Cl)ccc4[nH]3)sc2C1`, the inhibition in vivo at 10 mg/kg in [6] was -2%; in [7] it was -7.3%; in data set [8], 0.76%; in data set [9] it was -2.5%. In data set [4], this molecule registered an IC50 of 9.3 nM. Besides, the Activity in data set [5] turned out to be 0.9 µM. In [3], this molecule had a solubility of 410 µg/mL (≈ 772 µM).
Turning to `COC(=O)CN1CC[C@H](NC(=O)c2cc3cc(Cl)ccc3[nH]2)[C@H](NC(=O)c2nc3c(s2)CN(C)CC3)C1`, half-maximal inhibition in data set [4] (IC50) required 56 nM. Further, the Activity in [5] was 2.1 µM. For the same molecule, in data set [3], the concentration in solution (solubility) was 28 µg/mL (≈ 51.4 µM).
The like results for `COCCN1CC[C@H](NC(=O)c2cc3cc(Cl)ccc3[nH]2)[C@H](NC(=O)c2nc3c(s2)CN(C)CC3)C1` were, in that order, 47 nM, 3.8 µM and 130 µg/mL (≈ 245 µM).
For `CN1CCc2nc(C(=O)N[C@@H]3CN(C(=O)NC(C)(C)C)CC[C@@H]3NC(=O)c3cc4cc(Cl)ccc4[nH]3)sc2C1` the same measures were 4.8 nM, 0.78 µM and 39 µg/mL (≈ 68.2 µM).
Take `CCC(=O)N1CC[C@H](NC(=O)c2cc3cc(Cl)ccc3[nH]2)[C@H](NC(=O)c2nc3c(s2)CN(C)CC3)C1`: the IC50 in [4] was 9 nM. In addition, in data set [5], the Activity is 0.78 µM. The molecule also gave a solubility in data set [3] of 160 µg/mL (≈ 302 µM).
With `COCC(=O)N1CC[C@H](NC(=O)c2cc3cc(Cl)ccc3[nH]2)[C@H](NC(=O)c2nc3c(s2)CN(C)CC3)C1`, the inhibition in vivo at 10 mg/kg in [6] is 50%; in [7], 16%; in data set [8], 68%; in [9] it was 38%. Further, the IC50 in [4] stood at 5.8 nM. In data set [5], the Activity amounted to 0.78 µM. This molecule yielded a solubility in data set [3] of 510 µg/mL (≈ 936 µM).
On to `CCNC(=O)N1CC[C@H](NC(=O)c2cc3cc(Cl)ccc3[nH]2)[C@H](NC(=O)c2nc3c(s2)CN(C)CC3)C1`, for which the inhibition in vivo at 10 mg/kg worked out at 11.4% in data set [6], 4.3% in data set [7], 16.7% in data set [8] and 5.3% in data set [9]. This molecule also displayed an IC50 in data set [4] of 7.8 nM. The Activity in [5] is 0.8 µM. The solubility in data set [3] worked out at 220 µg/mL (≈ 404 µM).
With `CN1CCc2nc(C(=O)N[C@@H]3CN(C(=O)N(C)C)CC[C@@H]3NC(=O)c3cc4cc(Cl)ccc4[nH]3)sc2C1`, the inhibition in vivo at 10 mg/kg in [6] was 78.6%; in data set [7], 68.1%; in data set [8], 80.2%; in data set [9], 73.7%. In addition, in data set [3], the solubility was found to be 56 µg/mL (≈ 103 µM).
Regarding `CN1CCc2nc(C(=O)N[C@@H]3CN(CC(=O)O)CC[C@@H]3NC(=O)c3cc4cc(Cl)ccc4[nH]3)sc2C1`, the IC50 in [4] stood at 26 nM. For the same molecule, the Activity in data set [5] is 1.8 µM. This molecule also returned a solubility in [3] of 723 µg/mL (≈ 1360 µM).
`CN1CCc2nc(C(=O)N[C@@H]3CCCC[C@@H]3NC(=O)c3cc4cc(Cl)ccc4[nH]3)sc2C1.Cl` came in with an AUC(0-t) at 24 h in data set [10] of 56.6 ng·h/mL. The concentration in data set [11] peaked (Cmax) at 23.3 ng/mL. For the same molecule, in data set [12], the Tmax was 120 min.
The like results for `COCC(=O)N1CC[C@H](NC(=O)c2cc3cc(Cl)ccc3[nH]2)[C@H](NC(=O)c2nc3c(s2)CN(C)CC3)C1.Cl` were, in that order, 83.6 ng·h/mL, 36.4 ng/mL and 72 min.
Regarding `CCC(=O)N1CCC(NC(=O)c2cc3cc(Cl)ccc3[nH]2)C(NC(=O)c2nc3c(s2)CN(C)CC3)C1` (racemic), the half-life in data set [1] turned out to be 6.08 min. For the same molecule, in [2], the CLint scaled worked out at 103 mL/min/kg.
Consider `COCC(=O)N1CCC(NC(=O)c2cc3cc(Cl)ccc3[nH]2)C(NC(=O)c2nc3c(s2)CN(C)CC3)C1` (racemic), for which the half-life in [1] was found to be 13.6 min. The CLint scaled in [2] was 45.9 mL/min/kg.
For `CN1CCc2nc(C(=O)NC3CN(C(=O)CO)CCC3NC(=O)c3cc4cc(Cl)ccc4[nH]3)sc2C1` (racemic) the same measures were 15.1 min and 41.4 mL/min/kg.
With `CC(=O)N1CCC(NC(=O)c2cc3cc(Cl)ccc3[nH]2)C(NC(=O)c2nc3c(s2)CN(C)CC3)C1` (racemic), the half-life in [1] was 6.54 min. Moreover, the CLint scaled in [2] was determined as 95.4 mL/min/kg. This molecule also returned a solubility in data set [3] of 421 µg/mL (≈ 817 µM).
For `CN1CCc2nc(C(=O)NC3CN(C(=O)N(C)C)CCC3NC(=O)c3cc4cc(Cl)ccc4[nH]3)sc2C1` (racemic), in [1], the half-life worked out at 6.73 min. In addition, the CLint scaled in data set [2] was found to be 92.7 mL/min/kg.
As for `CN1CCc2nc(C(=O)NC3CCCCC3NC(=O)c3cc4cc(Cl)ccc4[nH]3)sc2C1` (racemic), the half-life in data set [1] is 7.7 min. In data set [2], the CLint scaled was 81 mL/min/kg. For the same molecule, in data set [5], the Activity was determined as 4.4 µM. In data set [3], this molecule came in with a solubility of 17 µg/mL (≈ 36 µM).
In data set [4], `CCOC(=O)N1CCC(NC(=O)c2nc3c(s2)CN(C)CC3)C(NC(=O)c2cc3cc(Cl)ccc3[nH]2)C1` (racemic) came in with an IC50 of 110 nM. In [5], the Activity stood at 11 µM. The molecule further returned a solubility in [3] of 37 µg/mL (≈ 67.9 µM).
For `CC(=O)N1CCC(NC(=O)c2nc3c(s2)CN(C)CC3)C(NC(=O)c2cc3cc(Cl)ccc3[nH]2)C1` (racemic) the same measures were 48 nM, 5.8 µM and 290 µg/mL (≈ 563 µM).
Consider `CCOC(=O)N1CCC(NC(=O)c2cc3cc(Cl)ccc3[nH]2)C(NC(=O)c2nc3c(s2)CN(C)CC3)C1` (racemic), for which the midpoint of inhibition in [4], the IC50, lay at 4.5 nM. In data set [1], the half-life is 4.53 min. Besides, the intrinsic clearance (CLint scaled) in data set [2] amounted to 138 mL/min/kg. Moreover, the Activity in [5] is 1.4 µM. The molecule further yielded a solubility in data set [3] of 43 µg/mL (≈ 78.9 µM).
In the case of `CN1CCc2nc(C(=O)NC3CNCCC3NC(=O)c3cc4cc(Cl)ccc4[nH]3)sc2C1` (racemic), in data set [4], the IC50 turned out to be 62 nM. Also, the Activity in [5] turned out to be 1.3 µM. This molecule displayed a solubility in data set [3] of 996 µg/mL (≈ 2110 µM).
The like results for `CN1CCc2nc(C(=O)NC3CCN(C(=O)OC(C)(C)C)CC3NC(=O)c3cc4cc(Cl)ccc4[nH]3)sc2C1` (racemic) were, in that order, 130 nM, 6.2 µM and less than 1 µg/mL.
As for `CN1CCc2nc(C(=O)NC3CN(C(=O)NC(C)(C)C)CCC3NC(=O)c3cc4cc(Cl)ccc4[nH]3)sc2C1` (racemic), in data set [1], the half-life stood at 6.24 min. Further, the CLint scaled in [2] was 99.9 mL/min/kg.
`CN1CCc2nc(C(=O)NC3CN(C(=O)OC(C)(C)C)CCC3NC(=O)c3cc4cc(Cl)ccc4[nH]3)sc2C1` (racemic) registered an IC50 in [4] of 10 nM. Besides, the half-life in data set [1] worked out at 4.44 min. The CLint scaled in [2] came to 140 mL/min/kg. The Activity in [5] came out at 3.5 µM. The molecule also came in with a solubility in data set [3] of 3 µg/mL (≈ 5.23 µM).
In turn, `CN1CCc2nc(C(=O)NC3CCN(S(C)(=O)=O)CC3NC(=O)c3cc4cc(Cl)ccc4[nH]3)sc2C1` (racemic) registered an IC50 in data set [4] of 45 nM. Also, the Activity in [5] was 8 µM. In [3], this molecule displayed a solubility of 70 µg/mL (≈ 127 µM).
For `CN1CCc2nc(C(=O)NC3CCNCC3NC(=O)c3cc4cc(Cl)ccc4[nH]3)sc2C1` (racemic) the same measures were 530 nM, greater than 20 µM and 830 µg/mL (≈ 1750 µM).
Regarding `CC(C)C(=O)N1CCC(NC(=O)c2cc3cc(Cl)ccc3[nH]2)C(NC(=O)c2nc3c(s2)CN(C)CC3)C1` (racemic), in [1], the half-life was 6.36 min. In addition, the CLint scaled in [2] was 98.1 mL/min/kg.
The like results for `CCNC(=O)N1CCC(NC(=O)c2cc3cc(Cl)ccc3[nH]2)C(NC(=O)c2nc3c(s2)CN(C)CC3)C1` (racemic) were, in that order, 7.22 min and 86.4 mL/min/kg.
In turn, `CN1CCc2nc(C(=O)NC3CN(S(C)(=O)=O)CCC3NC(=O)c3cc4cc(Cl)ccc4[nH]3)sc2C1` (racemic) gave an IC50 in [4] of 28 nM. Moreover, the Activity in data set [5] is 2.5 µM. Further, the solubility in [3] came to 103 µg/mL (≈ 187 µM).
